Experimental data taken from ChEMBL document CHEMBL4342418, “1,2,3-Triazole-containing hybrids as potential anticancer agents: Current developments, action mechanisms and structure-activity relationships” (Eur J Med Chem, 2019).

Key:
Format in all cases: functional, cell-based
MCF7 = experiment: cells; settings: Homo sapiens
Description: Antiproliferative activity against human MCF7 cells by MTT assay

Lu1 = experiment: Antiproliferative activity against human Lu1 cells by MTT assay
HL-60 = experiment: Antiproliferative activity against human HL60 cells by MTT assay
P388 = experiment: Antiproliferative activity against mouse P388 cells by MTT assay
PC-3 = experiment: Antiproliferative activity against human PC3 cells assessed as reduction in cell viability after 24 hrs by MTT assay; settings: PC-3, 24 h
MDA-MB-231 = experiment: Antiproliferative activity against human MDA-MB-231 cells assessed as reduction in cell viability after 24 hrs by MTT assay; settings: MDA-MB-231, 24 h
A549 [1] = experiment: Antiproliferative activity against human A549 cells assessed as reduction in cell viability after 24 hrs by MTT assay; settings: A549, 24 h
A549 [2] = experiment: cells; settings: Homo sapiens
Description: Antiproliferative activity against human A549 cells by MTT assay

K562 = experiment: Antiproliferative activity against human K562 cells assessed as reduction in cell viability after 24 hrs by MTT assay; settings: K562, 24 h
A-431 = experiment: Antiproliferative activity against human A431 cells assessed as reduction in cell viability after 24 hrs by MTT assay; settings: A-431, 24 h
COLO 205 = experiment: Antiproliferative activity against human COLO205 cells assessed as reduction in cell viability after 24 hrs by MTT assay; settings: COLO 205, 24 h
HeLa = experiment: Antiproliferative activity against human HeLa cells by MTT assay

Row | SMILES | IC50 (MCF7) | IC50 (Lu1) | IC50 (HL-60) | IC50 (P388) | other results
1 | C[C@H]1[C@@H](OCc2cn(-c3cccc(C(=O)N4CCN(C)CC4)c3)nn2)O[C@@H]2O[C@@]3(C)CC[C@H]4[C@H](C)CC[C@@H]1[C@@]24OO3 | 2.5 to 176 µM | 2.5 to 176 µM | 2.5 to 176 µM | 2.5 to 176 µM | –
2 | COc1cc(-c2ccccc2Cl)cc(-c2nnn(Cc3ccccc3)c2C)n1 | – | – | – | – | IC50 (PC-3): 28.2 µg/mL; IC50 (MDA-MB-231): 42.3 µg/mL; IC50 (A549 [1]): 42.6 µg/mL
3 | CC[C@H]1OC(=O)[C@H](C)[C@@H](O[C@H]2C[C@@](C)(OC)[C@@](C)(CN(C)Cc3ccc(-c4cn(CCCCCCC(=O)NO)nn4)cc3)[C@H](C)O2)[C@H](C)[C@@H](O)[C@](C)(OC)C[C@@H](C)C(=O)[C@H](C)[C@@H](O)[C@]1(C)O | 0.69 µM | – | – | – | IC50 (A549 [2]): 0.99 µM
4 | CC1CCN(C(=O)c2cccc(-n3cc(CO[C@H]4O[C@@H]5O[C@@]6(C)CC[C@H]7[C@H](C)CC[C@@H]([C@H]4C)[C@@]57OO6)nn3)c2)CC1 | 2.5 to 176 µM | 2.5 to 176 µM | 2.5 to 176 µM | 2.5 to 176 µM | –
5 | CCC1(CCn2cc(COc3ccccc3)nn2)OCCc2c1[nH]c1ccccc21 (configuration not stated) | – | – | – | – | IC50 (A549 [2]): 3.29 µM
6 | CC1CCN(C(=O)c2ccc(-n3cc(CO[C@H]4O[C@@H]5O[C@@]6(C)CC[C@H]7[C@H](C)CC[C@@H]([C@H]4C)[C@@]57OO6)nn3)cc2)CC1 | 2.5 to 4.7 µM | 2.5 to 4.7 µM | 2.5 to 4.7 µM | 2.5 to 4.7 µM | –
7 | C[C@H]1[C@@H](OCc2cn(-c3cccc(C(=O)N4CCOCC4)c3)nn2)O[C@@H]2O[C@@]3(C)CC[C@H]4[C@H](C)CC[C@@H]1[C@@]24OO3 | 2.5 to 176 µM | 2.5 to 176 µM | 2.5 to 176 µM | 2.5 to 176 µM | –
8 | C[C@H]1[C@@H](OCc2cn(-c3ccc(C(=O)N4CCN(c5ccccc5)CC4)cc3)nn2)O[C@@H]2O[C@@]3(C)CC[C@H]4[C@H](C)CC[C@@H]1[C@@]24OO3 | 2.5 to 176 µM | 2.5 to 176 µM | 2.5 to 176 µM | 2.5 to 176 µM | –
9 | C[C@H]1[C@@H](OCc2cn(-c3cccc(C(=O)N4CCCCC4)c3)nn2)O[C@@H]2O[C@@]3(C)CC[C@H]4[C@H](C)CC[C@@H]1[C@@]24OO3 | 2.5 to 176 µM | 2.5 to 176 µM | 2.5 to 176 µM | 2.5 to 176 µM | –
10 | CC(=O)c1ccccc1-n1cc(CO[C@H]2O[C@@H]3O[C@@]4(C)CC[C@H]5[C@H](C)CC[C@@H]([C@H]2C)[C@@]35OO4)nn1 | – | – | – | – | IC50 (K562): 4.06 to 89.9 µM; IC50 (PC-3): 4.06 to 89.9 µM; IC50 (A-431): 4.06 to 89.9 µM; IC50 (MDA-MB-231): 4.06 to 89.9 µM; IC50 (COLO 205): 4.06 to 89.9 µM; IC50 (A549 [1]): 4.06 to 89.9 µM
11 | CCN(CC)C(=O)c1ccc(-n2cc(CO[C@H]3O[C@@H]4O[C@@]5(C)CC[C@H]6[C@H](C)CC[C@@H]([C@H]3C)[C@@]46OO5)nn2)cc1 | 2.5 to 176 µM | 2.5 to 176 µM | 2.5 to 176 µM | 2.5 to 176 µM | –
12 | CCN1CCN(C(=O)c2cccc(-n3cc(CO[C@H]4O[C@@H]5O[C@@]6(C)CC[C@H]7[C@H](C)CC[C@@H]([C@H]4C)[C@@]57OO6)nn3)c2)CC1 | 2.5 to 176 µM | 2.5 to 176 µM | 2.5 to 176 µM | 2.5 to 176 µM | –
13 | C[C@H]1[C@@H](OCc2cn(-c3ccc([N+](=O)[O-])cc3)nn2)O[C@@H]2O[C@@]3(C)O[C@]24[C@H]1CC[C@@H](C)[C@@H]4C[C@H]3O | – | – | – | – | IC50 (K562): 4.06 to 89.9 µM; IC50 (PC-3): 4.06 to 89.9 µM; IC50 (A-431): 4.06 to 89.9 µM; IC50 (MDA-MB-231): 4.06 to 89.9 µM; IC50 (COLO 205): 4.06 to 89.9 µM; IC50 (A549 [1]): 4.06 to 89.9 µM
14 | C[C@H]1[C@@H](OCc2cn(-c3ccc(C(=O)N4CCCC4)cc3)nn2)O[C@@H]2O[C@@]3(C)CC[C@H]4[C@H](C)CC[C@@H]1[C@@]24OO3 | 2.5 to 176 µM | 2.5 to 176 µM | 2.5 to 176 µM | 2.5 to 176 µM | –
15 | CCC1(CCn2cc(COc3ccc(C)cc3)nn2)OCCc2c1[nH]c1ccccc21 (configuration not stated) | – | – | – | – | IC50 (A549 [2]): 3.65 µM
16 | CCN(CC)C(=O)c1cccc(-n2cc(CO[C@H]3O[C@@H]4O[C@@]5(C)CC[C@H]6[C@H](C)CC[C@@H]([C@H]3C)[C@@]46OO5)nn2)c1 | 2.5 to 176 µM | 2.5 to 176 µM | 2.5 to 176 µM | 2.5 to 176 µM | –
17 | C[C@H]1[C@@H](OCc2cn(-c3ccc(C#N)cc3)nn2)O[C@@H]2O[C@@]3(C)CC[C@H]4[C@H](C)CC[C@@H]1[C@@]24OO3 | – | – | – | – | IC50 (K562): 4.06 to 89.9 µM; IC50 (PC-3): 4.06 to 89.9 µM; IC50 (A-431): 4.06 to 89.9 µM; IC50 (MDA-MB-231): 4.06 to 89.9 µM; IC50 (COLO 205): 4.06 to 89.9 µM; IC50 (A549 [1]): 4.06 to 89.9 µM
18 | CO[C@H]1C[C@@H]2CC[C@@H](C)[C@@](O)(O2)C(=O)C(=O)N2CCCC[C@H]2C(=O)O[C@H]([C@H](C)C[C@@H]2CC[C@@H](O)[C@H](OC)C2)CC(=O)[C@H](C)/C=C(\C)[C@@H](O)[C@@H](OC)C(=O)[C@H](C)C[C@H](C)/C=C/C=C/C=C/1C [SIROLIMUS] | 18.7 to 35.1 µM | – | – | – | IC50 (A549 [2]): 18.7 to 35.1 µM
19 | COc1ccc(-c2ccc3c(c2)OCC(=O)N3Cc2cn(-c3cc(Cl)cc(Cl)c3)nn2)cc1 | 21.8 µM | – | – | – | IC50 (HeLa): 19.5 µM
20 | CC1CCCCN1C(=O)c1ccc(-n2cc(CO[C@H]3O[C@@H]4O[C@@]5(C)CC[C@H]6[C@H](C)CC[C@@H]([C@H]3C)[C@@]46OO5)nn2)cc1 (some centres not stated) | 2.5 to 176 µM | 2.5 to 176 µM | 2.5 to 176 µM | 2.5 to 176 µM | –
21 | C[C@@H]1CC[C@H]2C[C@@H](OCc3cn(-c4ccnc5cc(Cl)ccc45)nn3)O[C@@H]3O[C@@]4(C)CC[C@@H]1[C@@]23OO4 | 5.7 to 19.5 µM | 5.7 to 19.5 µM | 5.7 to 19.5 µM | 5.7 to 19.5 µM | –
22 | C[C@H]1[C@@H](OCc2cn(-c3cccc(C(=O)N4CCCC4)c3)nn2)O[C@@H]2O[C@@]3(C)CC[C@H]4[C@H](C)CC[C@@H]1[C@@]24OO3 | 2.5 to 176 µM | 2.5 to 176 µM | 2.5 to 176 µM | 2.5 to 176 µM | –
23 | CC1CCCCN1C(=O)c1cccc(-n2cc(CO[C@H]3O[C@@H]4O[C@@]5(C)CC[C@H]6[C@H](C)CC[C@@H]([C@H]3C)[C@@]46OO5)nn2)c1 (some centres not stated) | 2.5 to 176 µM | 2.5 to 176 µM | 2.5 to 176 µM | 2.5 to 176 µM | –
24 | C[C@H]1[C@@H](OCc2cn(-c3ccc(C(=O)N4CCCCC4)cc3)nn2)O[C@@H]2O[C@@]3(C)CC[C@H]4[C@H](C)CC[C@@H]1[C@@]24OO3 | 2.5 to 176 µM | 2.5 to 176 µM | 2.5 to 176 µM | 2.5 to 176 µM | –
25 | CCN1CCN(C(=O)c2ccc(-n3cc(CO[C@H]4O[C@@H]5O[C@@]6(C)CC[C@H]7[C@H](C)CC[C@@H]([C@H]4C)[C@@]57OO6)nn3)cc2)CC1 | 2.5 to 176 µM | 2.5 to 176 µM | 2.5 to 176 µM | 2.5 to 176 µM | –
26 | C[C@H]1[C@@H](OCc2cn(-c3cccc(C(=O)N4CCN(c5ccccc5)CC4)c3)nn2)O[C@@H]2O[C@@]3(C)CC[C@H]4[C@H](C)CC[C@@H]1[C@@]24OO3 | 2.5 to 176 µM | 2.5 to 176 µM | 2.5 to 176 µM | 2.5 to 176 µM | –
27 | C[C@H]1[C@@H](OCc2cn(-c3ccc(C(=O)N4CCN(C)CC4)cc3)nn2)O[C@@H]2O[C@@]3(C)CC[C@H]4[C@H](C)CC[C@@H]1[C@@]24OO3 | 2.5 to 176 µM | 2.5 to 176 µM | 2.5 to 176 µM | 2.5 to 176 µM | –
28 | C[C@H]1[C@@H](OCc2cn(-c3ccc(C(=O)N4CCOCC4)cc3)nn2)O[C@@H]2O[C@@]3(C)CC[C@H]4[C@H](C)CC[C@@H]1[C@@]24OO3 | 2.5 to 176 µM | 2.5 to 176 µM | 2.5 to 176 µM | 2.5 to 176 µM | –
29 | COc1ccc(-n2cc(Cn3c(=O)sc4cc(Br)ccc43)nn2)cc1 | 17.5 µM | – | – | – | IC50 (HeLa): 12.2 µM
